Peptide text beside a SMILES is read from it.
Tests used:
[1] = system: human colon cancer cell line (SW480); assay: Detection of SP fraction by Hoechst 33342/PI flow cytometry; format: cell-based; settings: verapamil final concentration 75 μM, Hoechst 33342 5.0 μM
Protocol: 5% fetal bovine serum (FCS (HyClone Laboratories))-supplemented DMEM (Sigma-Aldrich) medium was prepared as a medium and warmed at 37° C. Verapamil (Sigma-Aldrich) was adjusted to 50 mM and diluted to 5 mM using the 5% FCS-supplemented DMEM medium. Hoechst 33342 (Lonza) was adjusted to 250 μg/mL using the 5% FCS-supplemented DMEM medium. DNase I (Qiagen) was adjusted to 1 mg/mL using DDW and sterilized by filtration using a 0.2 μm filter.
A human colon cancer cell line (SW480 (ATCC)) was suspended in 4 mL of the 5% FCS-supplemented DMEM medium, and the number of cells was counted. Furthermore, the 5% FCS-supplemented DMEM medium was added so as to adjust the cell concentration to 10×10^6 cells/mL, thus giving a sample. Using part of the sample, dispensing was carried out; verapamil was not added to a main sample (verapamil(−) sample), and verapamil was added to a secondary sample so as to give a final concentration of 75 μM (verapamil(+) sample). Subsequently, the Hoechst 33342 solution was added to the verapamil(+) sample and the verapamil(−) sample so as to give a Hoechst 33342 final concentration of 5.0 μM. […]
First, cells in the verapamil(−) sample were analyzed, and cells in a cell group (side population (SP)) having low emission intensity compared with a main cell group (main population (MP)) were detected (FIG. 1).

[2] = system: T2-A24 cells; assay: Cytotoxicity test (calcein release) of peptide-induced CTLs toward peptide-pulsed T2-A24 cells; format: cell-based, human; settings: T2-A24 cells pulsed with 20 μg/mL peptide, E/T ratio 3, 10, 30; versus no peptide, HIV peptide and K562
Protocol: T2-A24 cells and K562 HLA-class I-deficient leukemia cells (obtained from ATCC) were suspended in 10% FBS-supplemented RPMI at a cell concentration of 1×10^6 cells/mL. Calcein (obtained from Dojindo) was added so as to give a final concentration of 10 μg/mL, and culturing was carried out at 37° C. for 30 minutes. Washing was carried out three times with 10 mL of 10% FBS-supplemented RPMI.
T2-A24 cells that had been stained with calcein were pulsed with each peptide at a concentration of 20 μg/mL at room temperature for 1 hour. With regard to the peptide pulse group there were three groups, that is, [1] no peptide pulse, [2] HIV peptide pulse, and [3] FAM83B peptide pulse. Subsequent to the peptide pulse, washing was carried out twice with PBS. Each cell group was plated to each well at 1×10^4 cells/50 μL. The fluorescence intensity (0 hours) of the cells plated to each well was measured using a Terascan (Minerva Tech K.K.).
After the 0 hours measurement, numbers of effector cells (CTLs) were plated to each well so that the effector/target ratio (E/T ratio) became 3, 10, and 30. Human PBMC inactivated at 80° C. was plated as a spontaneous release well. 2% NP-40-containing PBS was added in a maximum release well. After culturing at 37° C. for 4 hours to 6 hours, the fluorescence intensity of each well was measured using a Terascan. The cytotoxicity was calculated using the equation below. […]

Row | Structure (SMILES) | effect on SP cells (side population) [1] | cytotoxicity of CTLs toward peptide pulse group [2]
1 | COc1ccc(CCN(C)CCCC(C#N)(c2ccc(OC)c(OC)c2)C(C)C)cc1OC (centres unmarked) [verapamil, Verapamil] | SP cells disappeared | 
2 | NCCCC[C@H](NC(=O)[C@H](CC(N)=O)NC(=O)[C@H](CCC(=O)O)NC(=O)[C@H](CC(N)=O)NC(=O)[C@@H]1CCCN1C(=O)[C@H](CCC(N)=O)NC(=O)[C@H](Cc1ccc(O)cc1)NC(=O)[C@@H](N)CO)C(=O)N[C@@H](Cc1ccccc1)C(=O)O [SF9] (H-SYQPNENKF-OH; N-terminus and C-terminus assumed) |  | high cytotoxicity

— US20160310583A1, “TUMOR ANTIGEN PEPTIDE” (Sumitomo Dainippon Pharma Co., Ltd., priority 2013, published 2016)
